Assay results taken from PMC8470104, “Anti-Metatype Antibody Screening, Sandwich Immunoassay Development, and Structural Insights for β-Lactams Based on Penicillin Binding Protein” (Molecules, 2021).

How the values were obtained:
PBP2x* = PBP2x* (Streptococcus pneumoniae, UniProt P14677); assay: direct competitive ELISA, binding affinity of β-lactams to PBP2x*; conditions: for IC50: IC50 (affinity to PBP2x*)
Source text: The anti-metatype antibodies that recognize the complex formed by the receptor and ligand was developed by immunization. The success of the immunization depends on the stability of the receptor–drug complex. In the present study, we hypothesized that the complex formed by PBP2x* and β-lactams with high affinity to PBP2x* would achieve higher stability, because more non-covalent bonds typically tend to form between the two. In addition, the conformational change of PBP2x* induced by the combination of the β-lactams with high affinity may be greater due to the existence of more interaction forces, which stimulate the PBP2x* to some extent. Therefore, a direct competitive ELISA was carried out to determine the affinity of 18 β-lactams to PBP2x*. […] In the cephalosporin group, CPZ, CFN, CFZ, and CFM performed poorly: affinities with IC50 were greater than 10 ng/mL, which was almost 2–50-fold that of other drugs such as CTRX, CTX, and KF. (Table 2). Therefore, for the preparation of anti-metatype antibodies, five β-lactams (including PNG, AMP, AMX, CTX, and KF) with high affinity to PBP2x* were selected to form a complex with PBP2x*.
The PBP2x* (100 μL/well) was diluted to an appropriate concentration and coated on microtiter plates, and incubated overnight at 4 °C. After the solution was poured, the plates were washed 3 times with washing buffer and patted dry. Then, 150 μL of blocking solution was added to each well, followed by 1 h of incubation at 37 °C. The β-lactam standards (50 μL), which were diluted to a series of concentrations, were added into each well, then 50 μL of the enzyme marker prepared in our previous study was added, and incubated at 37 °C for 30 min. After the washing procedure, the color was developed by adding tetramethylbenzidine (TMB) substrate. Finally, 2 M H2SO4 (50 μL/well) was used to stop the enzymatic reaction, and the optical density (OD) values of 450 nm was measured.

[1] = system: PBP2x*-β-lactam complexes; assay: sandwich immunoassay of 18 PBP2x*-β-lactam complexes (capture mAb 4H11, detection pAb #5); format: binding; conditions: 1000 ng/mL; mAb 4H11 capture, pAb #5 detection; n = 3; S/N > 1 positive detection
Method: Microtiter plates were coated with 100 μL anti-mouse IgG antibody in CB buffer and incubated at 4 °C overnight. The plates were subsequently washed and blocked with 150 μL of 2% skim milk. Then, 100 μL of diluted mAb was added to the wells and incubated for 1 h at 37 °C. After washing, 100 μL individual PBP2x* or receptor–ligand complexes of 18 β-lactams with PBP2x* that were diluted to 1 μg/mL was added. The incubation was carried out at 37 °C for 1 h, followed by another washing procedure. Then, 100 μL diluted HRP-labeled pAb was added to the wells and incubated for 1 h at 37 °C. The TMB substrate solution was added after washing, followed by the addition of 2 M H2SO4 to stop the reaction, and finally the OD values were measured at 450 nm.

[2] = PBP2x* coated, enzyme marker competitor

Chain of PBP2x* (P14677 49-750): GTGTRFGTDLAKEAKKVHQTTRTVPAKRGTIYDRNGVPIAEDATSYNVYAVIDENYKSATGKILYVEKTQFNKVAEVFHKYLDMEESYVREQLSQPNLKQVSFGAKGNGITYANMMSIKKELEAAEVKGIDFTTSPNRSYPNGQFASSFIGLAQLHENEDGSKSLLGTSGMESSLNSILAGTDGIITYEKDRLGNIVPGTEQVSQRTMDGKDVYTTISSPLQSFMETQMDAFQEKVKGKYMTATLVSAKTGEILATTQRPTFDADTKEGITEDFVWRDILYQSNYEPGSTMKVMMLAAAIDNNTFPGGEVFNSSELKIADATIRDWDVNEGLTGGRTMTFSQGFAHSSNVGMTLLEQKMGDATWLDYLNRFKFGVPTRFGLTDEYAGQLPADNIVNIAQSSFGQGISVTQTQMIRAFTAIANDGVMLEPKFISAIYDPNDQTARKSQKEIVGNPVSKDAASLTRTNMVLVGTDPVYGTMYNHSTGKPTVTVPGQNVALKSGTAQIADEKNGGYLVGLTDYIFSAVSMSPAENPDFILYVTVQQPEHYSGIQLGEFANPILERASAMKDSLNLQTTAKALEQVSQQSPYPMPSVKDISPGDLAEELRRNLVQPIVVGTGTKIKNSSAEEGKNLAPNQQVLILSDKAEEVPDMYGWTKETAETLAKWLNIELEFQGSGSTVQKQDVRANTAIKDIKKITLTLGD

Row | SMILES | affinity to PBP2x* (in words) (PBP2x*) | IC50 (PBP2x*; [2]) [nM] | Signal-to-noise ratio (S/N) of the sandwich immunoassay [1] | IC50 (affinity to PBP2x*) (PBP2x*; [2]) [ng/mL]
1 | Cc1onc(-c2ccccc2Cl)c1C(=O)N[C@@H]1C(=O)N2[C@@H]1SC(C)(C)[C@@H]2C(=O)O [CLX, Cloxacillin] | relatively poor affinity | 173 |  | 
2 | CC1(C)S[C@@H]2[C@H](NC(=O)[C@H](N)c3ccc(O)cc3)C(=O)N2[C@H]1C(=O)O [AMX, Amoxicillin] | high affinity | 18.7 | < 1 | 
3 | CC1(C)S[C@@H]2[C@H](NC(=O)Cc3ccccc3)C(=O)N2[C@H]1C(=O)O [PNG, Penicillin G] | high affinity | 10.6 | < 1 | 
4 | CCN1CCN(C(=O)N[C@@H](C(=O)N[C@@H]2C(=O)N3C(C(=O)O)=C(CSc4nnnn4C)CS[C@H]23)c2ccc(O)cc2)C(=O)C1=O [CPZ, Cefoperazone] |  | 155 |  | 
5 | CO/N=C(\C(=O)N[C@@H]1C(=O)N2C(C(=O)O)=C(CSc3nc(=O)c(=O)[nH]n3C)CS[C@H]12)c1csc(N)n1 [CTRX, Cefatriaxone] |  | 4.24 |  | 
6 | CC1(C)S[C@@H]2[C@H](NC(=O)[C@H](NC(=O)N3CCNC3=O)c3ccccc3)C(=O)N2[C@H]1C(=O)O [AZL, Azlocillin] | high affinity | 14.5 |  | 
7 | CO/N=C(\C(=O)N[C@@H]1C(=O)N2C(C(=O)O)=C(COC(C)=O)CS[C@H]12)c1csc(N)n1 [CTX, Cefotaxime] | high affinity | 10.4 |  | 
8 | CO/N=C(\C(=O)N[C@@H]1C(=O)N2C(C(=O)O)=C(CSC(=O)c3ccco3)CS[C@H]12)c1csc(N)n1 [CFT, Ceftiofur] |  | 5.02 |  | 
9 | C=CC1=C(C(=O)O)N2C(=O)[C@@H](NC(=O)/C(=N\OCC(=O)O)c3csc(N)n3)[C@H]2SC1 [CFM, Cefixime] |  | 64.7 |  | 
10 | Cc1onc(-c2c(Cl)cccc2Cl)c1C(=O)N[C@@H]1C(=O)N2[C@@H]1SC(C)(C)[C@@H]2C(=O)O [DCX, Dicloxacillin] | relatively poor affinity | 32.6 |  | 
11 | CC1(C)S[C@@H]2[C@H](NC(=O)[C@H](N)c3ccccc3)C(=O)N2[C@H]1C(=O)O [AMP, Ampicillin] | high affinity | 22.3 | < 1 | 
12 | CC(=O)OCC1=C(C(=O)O)N2C(=O)[C@@H](NC(=O)Cc3cccs3)[C@H]2SC1 [KF, Cefalothin] | high affinity |  | < 1 | 7.89
13 | Cc1nnc(SCC2=C(C(=O)O)N3C(=O)[C@@H](NC(=O)Cn4cnnn4)[C@H]3SC2)s1 [CFZ, Cefazolin] |  | 53.6 |  | 
14 | NC(=O)c1cc[n+](CC2=C(C(=O)[O-])N3C(=O)[C@@H](NC(=O)Cc4cccs4)[C@H]3SC2)cc1 [CFN, Cefalonium] |  | 33.4 |  | 
15 | CO/N=C(\C(=O)N[C@@H]1C(=O)N2C(C(=O)[O-])=C(C[N+]3(C)CCCC3)CS[C@H]12)c1csc(N)n1 [CFP, Cefepime] |  | 15.2 |  | 
16 | CCN1CCN(C(=O)N[C@@H](C(=O)N[C@@H]2C(=O)N3[C@@H]2SC(C)(C)[C@@H]3C(=O)O)c2ccccc2)C(=O)C1=O [PIPC, Piperacillin] | high affinity | 15 |  | 
17 | CC(=O)OCC1=C(C(=O)O)N2C(=O)[C@@H](NC(=O)CSc3ccncc3)[C@H]2SC1 [CFAP, Cefapirin] |  | 14.3 |  | 
18 | Cc1onc(-c2ccccc2)c1C(=O)N[C@@H]1C(=O)N2[C@@H]1SC(C)(C)[C@@H]2C(=O)O [OXA, Oxacillin] | relatively poor affinity | 25.1 |  | 
